Assay results taken from US7585895B2, “Therapeutic substituted cyclopentanes” (Allergan, Inc., priority 2005, dated 2009).

Tests used:
Format in all cases: cell-based
hEP2/Gqs5 = target: T1, hEP2/Gqs5 (Homo sapiens, UniProt P43116); assay: FLIPR calcium signal, EP2; conditions: HEK-293(EBNA), value outside parentheses, read-out: Ca2+ Signal-EC50 (nM) EP2
T1 construct: expressed in transfected cells
Protocol: (§1) HEK-293(EBNA) cells, stably expressing one type or subtype of recombinant human prostaglandin receptors (prostaglandin receptors expressed: hDP/Gqs5; hEP1; hEP2/Gqs5; hEP3A/Gqi5; hEP4/Gqs5; hFP; hIP; hTP), were cultured in 100 mm culture dishes in high-glucose DMEM medium containing 10% fetal bovine serum, 2 mM 1-glutamine, 250 μg/ml geneticin (G418) and 200 μg/ml hygromycin B as selection markers, and 100 units/ml penicillin G, 100 μg/ml streptomycin and 0.25 μg/ml amphotericin B.
(§2) Cells were seeded at a density of 5×10^4 cells per well in Biocoat® Poly-D-lysine-coated black-wall, clear-bottom 96-well plates (Becton-Dickinson) and allowed to attach overnight in an incubator at 37° C. Cells were then washed two times with HBSS-HEPES buffer (Hanks Balanced Salt Solution without bicarbonate and phenol red, 20 mM HEPES, pH 7.4) using a Denley Cellwash plate washer (Labsystems). After 45 minutes of dye-loading in the dark, using the calcium-sensitive dye Fluo-4 AM at a final concentration of 2 μM, plates were washed four times with HBSS-HEPES buffer to remove excess dye leaving 100 μl in each well. Plates were re-equilibrated to 37° C. for a few minutes.
(§3) Cells were excited with an Argon laser at 488 nm, and emission was measured through a 510-570 nm bandwidth emission filter (FLIPR™, Molecular Devices, Sunnyvale, Calif.). Drug solution was added in a 50 μl volume to each well to give the desired final concentration. The peak increase in fluorescence intensity was recorded for each well. On each plate, four wells each served as negative (HBSS-HEPES buffer) and positive controls (standard agonists: BW245C (hDP); PGE2 (HEP1; hEP2/Gqs5; hEP3A/Gqi5; hEP4/Gqs5); PGF2α (hFP); carbacyclin (hIP); U-46619 (hTP), depending on receptor). The peak fluorescence change in each drug-containing well was then expressed relative to the controls.
(§4) Compounds were tested in a high-throughput (HTS) or concentration-response (CoRe) format. In the HTS format, forty-four compounds per plate were examined in duplicates at a concentration of 10^−5 M. To generate concentration-response curves, four compounds per plate were tested in duplicates in a concentration range between 10^−5 and 10^−11 M. The duplicate values were averaged. In either, HTS or CoRe format each compound was tested on at least 3 separate plates using cells from different passages to give an n≧3.

hEP3A/Gqi5 = target: T2, hEP3A/Gqi5 (Homo sapiens, UniProt P43115); assay: FLIPR calcium signal, EP3; conditions: HEK-293(EBNA); for EC50: read-out: Ca2+ Signal-EC50 (nM) EP3
T2 construct: expressed in transfected cells
T2 sequence (P43115 1-390): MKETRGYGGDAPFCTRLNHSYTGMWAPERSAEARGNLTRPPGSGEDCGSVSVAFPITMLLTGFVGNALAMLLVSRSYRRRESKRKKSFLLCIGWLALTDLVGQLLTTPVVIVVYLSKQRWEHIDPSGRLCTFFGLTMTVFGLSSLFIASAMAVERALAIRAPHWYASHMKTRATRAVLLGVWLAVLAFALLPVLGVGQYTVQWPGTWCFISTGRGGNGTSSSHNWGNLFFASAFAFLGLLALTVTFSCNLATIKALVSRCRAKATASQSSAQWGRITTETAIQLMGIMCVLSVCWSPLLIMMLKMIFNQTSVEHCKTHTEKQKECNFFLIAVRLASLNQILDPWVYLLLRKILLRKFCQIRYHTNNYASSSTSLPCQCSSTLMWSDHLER
Protocol: as §1, §2, §3, §4

hTP = target: T3, hTP (Homo sapiens, UniProt P21731); assay: FLIPR calcium signal, TP; conditions: HEK-293(EBNA)
T3 construct: expressed in transfected cells
T3 sequence (P21731 1-343): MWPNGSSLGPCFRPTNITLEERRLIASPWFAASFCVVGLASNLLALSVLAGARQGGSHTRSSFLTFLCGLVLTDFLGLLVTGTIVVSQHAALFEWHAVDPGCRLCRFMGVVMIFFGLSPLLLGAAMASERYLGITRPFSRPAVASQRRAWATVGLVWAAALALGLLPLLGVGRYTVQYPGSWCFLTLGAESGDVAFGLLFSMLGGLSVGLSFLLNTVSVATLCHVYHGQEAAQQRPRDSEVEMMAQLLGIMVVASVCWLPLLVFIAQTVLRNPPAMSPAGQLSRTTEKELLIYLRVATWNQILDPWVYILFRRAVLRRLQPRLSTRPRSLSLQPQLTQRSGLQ
Protocol: as §1, §2, §3, §4

hIP = target: T4, hIP (Homo sapiens, UniProt P43119); assay: FLIPR calcium signal, IP; conditions: HEK-293(EBNA)
T4 construct: expressed in transfected cells
T4 sequence (P43119 whole entry): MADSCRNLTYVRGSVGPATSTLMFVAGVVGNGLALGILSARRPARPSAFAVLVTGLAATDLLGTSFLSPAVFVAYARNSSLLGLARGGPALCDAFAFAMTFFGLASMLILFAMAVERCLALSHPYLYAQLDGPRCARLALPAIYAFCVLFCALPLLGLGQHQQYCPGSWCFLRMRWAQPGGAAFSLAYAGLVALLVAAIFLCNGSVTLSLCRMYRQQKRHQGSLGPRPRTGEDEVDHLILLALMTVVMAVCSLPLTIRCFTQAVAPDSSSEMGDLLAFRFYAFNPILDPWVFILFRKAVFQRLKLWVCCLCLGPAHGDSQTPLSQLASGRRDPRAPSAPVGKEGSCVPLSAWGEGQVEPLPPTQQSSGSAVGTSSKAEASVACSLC
Protocol: as §1, §2, §3, §4

hDP/Gqs5 = target: T5, hDP/Gqs5 (Homo sapiens, UniProt Q13258); assay: FLIPR calcium signal, DP; conditions: HEK-293(EBNA)
T5 construct: expressed in transfected cells
T5 sequence (Q13258 1-359): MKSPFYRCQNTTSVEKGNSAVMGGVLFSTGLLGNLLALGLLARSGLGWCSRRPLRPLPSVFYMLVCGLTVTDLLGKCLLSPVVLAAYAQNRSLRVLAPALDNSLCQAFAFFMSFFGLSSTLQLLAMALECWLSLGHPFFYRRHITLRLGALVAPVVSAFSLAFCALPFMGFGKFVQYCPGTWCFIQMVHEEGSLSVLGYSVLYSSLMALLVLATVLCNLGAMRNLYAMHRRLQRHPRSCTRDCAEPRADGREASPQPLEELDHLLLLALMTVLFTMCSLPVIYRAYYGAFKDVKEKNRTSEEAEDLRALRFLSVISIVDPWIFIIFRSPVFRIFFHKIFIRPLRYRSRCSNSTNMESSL
Protocol: as §1, §2, §3, §4

EP2 = EP2 (Homo sapiens, UniProt P43116); assay: cAMP assay, HEK-EBNA cells expressing EP2; design: expressed in transfected cells; host or cells: HEK-EBNA; conditions: value in parentheses in EP2 column, read-out: EP2 EC50 (nM), measurement of cAMP (data in parentheses)
Sequence of EP2 (P43116 whole entry): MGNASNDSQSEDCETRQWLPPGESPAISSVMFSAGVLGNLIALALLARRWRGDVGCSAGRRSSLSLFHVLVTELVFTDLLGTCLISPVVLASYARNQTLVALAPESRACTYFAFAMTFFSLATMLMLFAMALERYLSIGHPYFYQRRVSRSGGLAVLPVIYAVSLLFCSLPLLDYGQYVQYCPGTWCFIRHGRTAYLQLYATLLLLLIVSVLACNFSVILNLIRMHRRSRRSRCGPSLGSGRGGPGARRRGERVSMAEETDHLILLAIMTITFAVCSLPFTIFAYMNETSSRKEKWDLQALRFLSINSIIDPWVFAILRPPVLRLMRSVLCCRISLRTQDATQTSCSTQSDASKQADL
Protocol: A 384-well drug plate was prepared to contain 6 test compounds, PGE2 and cAMP in 16 serial dilutions in triplicate, using a Biomek station. HEK-EBNA cells expressing a target PG receptor subtype (EP2 or EP4) were suspended in a stimulation buffer (HBSS, 0.1% BSA, 0.5 mM IBMX and 5 mM HEPES, pH 7.4) in a density of 10^4 cells/5 μl. The reaction was initiated by mixing 5 μL drug dilutions with 5 μl of HEK-EBNA cells in a well, carried out for 30 min at room temperature, and followed by the addition of 5 μl anti-cAMP acceptor beads in the control buffer with Tween-20 (25 mM NaCl, 0.03% Tween-20, 5 mM HEPES, pH7.4). After 30 min in the dark at room temperature, the mixtures were incubated with 15 μl biotinylated-cAMP/strepavidin donor beads in Lysis/Detection buffer (0.1% BSA, 0.3% Tween-20 and 5 mM HEPES, pH7.4) for 45 min at the room temperature. Fluorescence changes were read using a Fusion-alpha HT microplate reader.

T1 sequence (P43116 whole entry): as above

Row | Compound | EC50 (hEP2/Gqs5) | EC50 (hEP3A/Gqi5) | Ca2+ Signal-EC50 (nM) TP (hTP) | Ca2+ Signal-EC50 (nM) IP (hIP) | Ca2+ Signal-EC50 (nM) DP (hDP/Gqs5) | EC50 (EP2) | EC50 (hIP; read-out: Ca2+ Signal-EC50 (nM) IP) | Ca2+ Signal-EC50 (nM) EP3 (hEP3A/Gqi5)
1 | CCCCCC(O)c1ccc([C@@H]2[C@@H](Cc3cccc(CCC(=O)O)c3)[C@H](Cl)C[C@H]2O)cc1 (stereo partly drawn) [Entry 3, 3-(3-{(1R,2S,3R,5R)-5-Chloro-3-hydroxy-2-[4-(1-hydroxy-hexyl)-phenyl]-cyclopentylmethyl}-phenyl)-propionic acid] | 158 nM | 4670 nM | not active | not active | not active | 56 nM | – | –
2 | CCCCCC(O)c1ccc([C@@H]2[C@@H](C/C=C\CCCC(=O)O)[C@@H](Cl)C[C@H]2O)cc1 (stereo partly drawn) [Entry 9, (Z)-7-{(1R,2S,3R,5S)-5-Chloro-3-hydroxy-2-[4-(1-hydroxy-hexyl)-phenyl]-cyclopentyl}-hept-5-enoic acid] | 242 nM | 7230 nM | not active | – | not active | 324 nM | 6880 nM | –
3 | CCCCCC(O)c1ccc([C@@H]2[C@@H](C/C=C\CCCC(=O)O)[C@H](Cl)C[C@H]2O)cc1 (single isomer, unassigned) [Entry 12] | 36 nM | – | not active | not active | not active | 38 nM | – | not active
4 | CCCC1(C(O)c2cccc([C@@H]3[C@@H](Cc4cccc(CCC(=O)O)c4)[C@H](Cl)C[C@H]3O)c2)CCC1 (stereo partly drawn) [Entry 4, 3-[3-((1R,2S,3R,5R)-5-Chloro-3-hydroxy-2-{3-[hydroxy-(1-propyl-cyclobutyl)-methyl]-phenyl}-cyclopentylmethyl)-phenyl]-propionic acid] | 4110 nM | – | not active | not active | not active | 69 nM | – | not active
5 | O=C(O)CCCCCC[C@@H]1[C@@H](c2ccc(C(O)CCc3ccccc3)cc2)[C@H](O)C[C@H]1Cl (stereo partly drawn) [Entry 24, 7-{(1R,2S,3R,5R)-5-Chloro-3-hydroxy-2-[4-(1-hydroxy-3-phenyl-propyl)-phenyl]-cyclopentyl}-heptanoic acid] | 735 nM | 8830 nM | not active | not active | not active | 628 nM | – | –

The remaining compounds from weak to strong by EC50 (hEP2/Gqs5), led by results:

Row | EC50 (hEP2/Gqs5) | EC50 (hEP3A/Gqi5) | Ca2+ Signal-EC50 (nM) TP (hTP) | Ca2+ Signal-EC50 (nM) IP (hIP) | Ca2+ Signal-EC50 (nM) DP (hDP/Gqs5) | EC50 (EP2) | EC50 (hIP; read-out: Ca2+ Signal-EC50 (nM) IP) | Ca2+ Signal-EC50 (nM) EP3 (hEP3A/Gqi5) | Compound
6 | 5390 nM | 4450 nM | not active | not active | not active | > 10000 nM | – | – | CC(C)(C)CCCC(O)c1ccc([C@@H]2[C@@H](CCCCCCC(=O)O)[C@H](Cl)C[C@H]2O)cc1 (mixture of isomers) [Entry 20, 7-{(1R,2S,3R,5R)-5-Chloro-3-hydroxy-2-[4-(1-hydroxy-5,5-dimethyl-hexyl)-phenyl]-cyclopentyl}-heptanoic acid]
7 | 2330 nM | 1710 nM | not active | not active | not active | 5260 nM | – | – | O=C(O)CCCCCC[C@@H]1[C@@H](c2ccc(C(O)CCC3CCCCC3)cc2)[C@H](O)C[C@H]1Cl (stereo partly drawn) [Entry 16, 7-{(1R,2S,3R,5R)-5-Chloro-2-[4-(3-cyclohexyl-1-hydroxy-propyl)-phenyl]-3-hydroxy-cyclopentyl}-heptanoic acid]
8 | 51 nM | – | not active | not active | not active | 59 nM | – | not active | O=C(O)CCCCCC[C@@H]1[C@@H](c2ccc(C(O)Cc3ccccc3)cc2)[C@H](O)C[C@H]1Cl (stereo partly drawn) [Entry 22, 7-{(1 R,2S,3R,5R)-5-Chloro-3-hydroxy-2-[4-(1-hydroxy-2-phenyl-ethyl)-phenyl]-cyclopentyl}-heptanoic acid]
9 | 28 nM | 477 nM | not active | not active | not active | 76 nM | – | – | CCCCCC(O)c1ccc([C@@H]2[C@@H](CCCCCCC(=O)O)[C@H](Cl)C[C@H]2O)cc1 (stereo partly drawn) [Entry 14, 7-{(1R,2S,3R,5R)-5-Chloro-3-hydroxy-2-[4-(1-hydroxy-hexyl)-phenyl]-cyclopentyl}-heptanoic acid]
10 | 9 nM | – | not active | not active | not active | 14 nM | – | not active | O=C(O)CCC/C=C\C[C@@H]1[C@@H](c2ccc(C(O)Cc3ccccc3)cc2)[C@H](O)C[C@H]1Cl (mixture of isomers) [Entry 21, (Z)-7-{(1R,2S,3R,5R)-5-Chloro-3-hydroxy-2-[4-(1-hydroxy-2-phenyl-ethyl)-phenyl]-cyclopentyl}-hept-5-enoic acid]
11 | 4 nM | 348 nM | not active | not active | not active | 2 nM | – | – | CCCCCC(O)c1ccc([C@@H]2[C@@H](CCCc3ccc(C(=O)O)s3)[C@H](Cl)C[C@H]2O)cc1 (stereo partly drawn) [Entry 2, 5-(3-{(1R,2S,3R,5R)-5-Chloro-3-hydroxy-2-[4-(1-hydroxy-hexyl)-phenyl]-cyclopentyl}-propyl)-thiophene-2-carboxylic acid]
